Entries after “also recorded” stand apart in the source; their conditions may differ.
What was measured:
[1] = system: HGF-induced vasculature formation; assay: Matrigel plug assay, HGF-induced angiogenesis in vivo; set-up: species or system BALB/c mice; conditions: Matrigel plug with HGF (50 ng/ml) and Indo5 (10 μM, 20 μM), 7 days
Description: After 7 days, mice were sacrificed and the Matrigel plugs were fixed in 10% buffered formaldehyde, which was embedded in paraffin, and sectioned. The sections were stained with hematoxylin and eosin(H&E). H&E staining was performed to identify the formation and infiltration of new, functional microvessles.

HCC metastasis in lung = assay: Lung metastasis in mice bearing MHCC97H orthotopic tumors (H&E); assay type: in vivo; conditions: Indo5 treatment
mouse hepatocytes = assay: HGF-induced proliferation of mouse hepatocytes (MTS assay)
Ba/F3-Tpr-Met cells = conditions: 0.5 μM Indo5
FGFR1 = FGFR1 (Homo sapiens, UniProt P11362); assay: In vitro kinase activity assay (HDB Kinase Selectivity Profiling); assay type: biochemical; conditions: Kinase Glo Plus assay format
SK-N-SH xenograft = SK-N-SH xenograft mice; assay type: in vivo
Description: (§1) Tumor growth was measured using vernier calipers, and tumor volume (mm^3) was calculated as (L × W × H)/2. When the mean tumor volume reached 200 mm^3, the mice were randomized into four groups and treatment was initiated. Indo5 in DMSO was injected intraperitoneally into the mice once daily at the indicated doses. Tumor volume were recorded every 3 days until the study was terminated. The mice were sacrificed after 21 days of treatment. Solid tumors were excised and weighed, and the inhibition rate was calculated as […].

IGF1R = IGF1R (Homo sapiens, UniProt P08069); assay: In vitro kinase activity assay (HDB Kinase Selectivity Profiling); assay type: biochemical; conditions: Kinase Glo Plus assay format
TrkA signaling = assay: NGF-induced TrkA signaling in SK-N-SH cells (Western blot); conditions: 1 μM Indo5, pretreated 2 h, NGF 500 ng/ml 5 min
Description: (§3) Data are shown as the mean ± S.D. and are representative of three independent experiments. ** p < 0.01, *** p < 0.001.
(§4) For western blots, cells were lysed with M-PER? Mammalian Protein Extraction Reagent (Pierce, Rockford, IL, USA). Then, western blot analysis was performed according to standard procedures. Chemiluminescent detection was conducted using supersignal substrate (Pierce) according to the manufacturer’s specifications.

[2] = system: c-Met^loTrkB^hi and c-Met^loTrkB^lo cells; assay: Cell growth of cells expressing TrkB alone or both low; assay type: cell-based; conditions: Homo sapiens, read-out: IC50 value, range over cell lines
[3] = system: orthotopic HepG2 cell xenografts; assay: Orthotopic HepG2 cell xenografts (liver orthotopic mouse model)
InsR = InsR (Homo sapiens, UniProt P06213); assay: In vitro kinase activity assay (HDB Kinase Selectivity Profiling); assay type: biochemical; conditions: Kinase Glo Plus assay format
[4] = system: VEGF receptor-mediated signaling pathway; assay: VEGF receptor-mediated signaling pathway in A549 cells (Western blot); conditions: A549, Indo5 pretreated 2 h, 100 ng/ml VEGF 5 min
HepG2 cells = assay: HGF-induced HepG2 cell migration (Transwell); conditions: HepG2, HGF 20 ng/ml, 24 h, dose-dependent
Description: For the migration assay, 2×10^5 cells were seeded on 8µm polycarbonate membrane (Transwell; Costar). […] After 24h migration cells were counted.

C-KIT(v654A) = C-KIT(v654A) (Homo sapiens, UniProt P10721, V654A); assay: In vitro kinase activity assay (Caliper assay format); assay type: biochemical
[5] = Body weight in HepG2 xenograft nude mice model; assay type: in vivo; conditions: Indo5 vs control groups
FLT1 = FLT1 (Homo sapiens, UniProt P17948); assay: In vitro kinase activity assay (HDB Kinase Selectivity Profiling); assay type: biochemical; conditions: Kinase Glo Plus assay format
AXL = AXL (Homo sapiens, UniProt P30530); assay: as above; assay type: biochemical; conditions: Kinase Glo Plus assay format
RET = RET (Homo sapiens, UniProt P07949); assay: as above; assay type: biochemical; conditions: Kinase Glo Plus assay format
EPHA1 = EPHA1 (Homo sapiens, UniProt P21709); assay: as above; assay type: biochemical; conditions: Kinase Glo Plus assay format
Ba/F3-TrkB cells = assay: BDNF-induced growth of TrkB-transfected Ba/F3 cells; conditions: BDNF 50 ng/ml 48 h, dose-dependent
Description: Cell proliferation was measured and the proliferation index was calculated. […] Data are shown as the mean ± S.D. and are representative of three independent experiments. ** p < 0.01, *** p < 0.001.

[6] = Body weight in liver orthotopic mouse model; assay type: in vivo, mice; conditions: liver orthotopic mouse model, Indo5 up to highest dose (48 mg/kg); 48 mg/kg
SK-N-SH = assay: Inhibition of cell proliferation (MTS assay); assay type: cell-based; conditions: Homo sapiens, c-Met^loTrkB^hi, 72 h
Description: (§2) All experiments were conducted three times.

L02 = assay: Inhibition of cell proliferation (MTS assay); assay type: cell-based; conditions: Homo sapiens, L02, c-Met^hiTrkB^lo (non-cancerous cells), 72 h
Description: as §2

HCC-LM3 = assay: Inhibition of cell proliferation (MTS assay); assay type: cell-based; conditions: Homo sapiens, HCCLM3, HCC-LM3, c-Met^hiTrkB^hi, 72 h
Description: as §2

A549 = assay: Inhibition of cell proliferation (MTS assay); assay type: cell-based; conditions: Homo sapiens, A549, c-Met^hiTrkB^hi, 72 h
Description: as §2

NCI-H460 = assay: Inhibition of cell proliferation (MTS assay); assay type: cell-based; conditions: Homo sapiens, NCI-H460, c-Met^loTrkB^lo, 72 h
Description: as §2

BEL-7402 = assay: Inhibition of cell proliferation (MTS assay); assay type: cell-based; conditions: Homo sapiens, BEL-7402, c-Met^loTrkB^lo, 72 h
Description: as §2

SMMC-7721 = assay: Inhibition of cell proliferation (MTS assay); assay type: cell-based; conditions: Homo sapiens, SMMC-7721, c-Met^loTrkB^hi, 72 h
Description: as §2

MRC-5 = assay: Inhibition of cell proliferation (MTS assay); assay type: cell-based; conditions: Homo sapiens, MRC5, MRC-5, c-Met^loTrkB^lo (non-cancerous cells), 72 h
Description: as §2

SMMC-7721 xenograft = SMMC-7721 xenograft mice; assay type: in vivo
Description: as §1

[7] = system: EGF receptor-mediated signaling pathway; assay: EGF receptor-mediated signaling pathway in A549 cells (Western blot); conditions: A549, Indo5 pretreated 2 h, 100 ng/ml EGF 5 min
TrkB signaling = assay: BDNF-induced TrkB signaling in HepG2 cells (Western blot); assay type: cell-based, human; conditions: HepG2, Indo5 pretreated 2 h, BDNF 50 ng/ml 5 min, dose-dependent
Description: as §3
(b) HepG2 cells were treated with BDNF (10 ng/ml) alone or BDNF (10 ng/ml) and HGF (10 ng/ml) for the indicated time and the activation of TrkB signaling pathway was examined. […] The activation of the TrkB and c-Met signaling pathways were examined. […] The activation of the TrkB and c-Met signaling pathways were examined. […] Data are shown as the mean ± S.D. and are representative of three independent experiments. **p < 0.01, ***p < 0.001
as §4

PDGFRα = PDGFRα (Homo sapiens, UniProt P16234); assay: In vitro kinase activity assay (HDB Kinase Selectivity Profiling); assay type: biochemical; conditions: Kinase Glo Plus assay format

Sequence of EPHA1 (P21709 26-976): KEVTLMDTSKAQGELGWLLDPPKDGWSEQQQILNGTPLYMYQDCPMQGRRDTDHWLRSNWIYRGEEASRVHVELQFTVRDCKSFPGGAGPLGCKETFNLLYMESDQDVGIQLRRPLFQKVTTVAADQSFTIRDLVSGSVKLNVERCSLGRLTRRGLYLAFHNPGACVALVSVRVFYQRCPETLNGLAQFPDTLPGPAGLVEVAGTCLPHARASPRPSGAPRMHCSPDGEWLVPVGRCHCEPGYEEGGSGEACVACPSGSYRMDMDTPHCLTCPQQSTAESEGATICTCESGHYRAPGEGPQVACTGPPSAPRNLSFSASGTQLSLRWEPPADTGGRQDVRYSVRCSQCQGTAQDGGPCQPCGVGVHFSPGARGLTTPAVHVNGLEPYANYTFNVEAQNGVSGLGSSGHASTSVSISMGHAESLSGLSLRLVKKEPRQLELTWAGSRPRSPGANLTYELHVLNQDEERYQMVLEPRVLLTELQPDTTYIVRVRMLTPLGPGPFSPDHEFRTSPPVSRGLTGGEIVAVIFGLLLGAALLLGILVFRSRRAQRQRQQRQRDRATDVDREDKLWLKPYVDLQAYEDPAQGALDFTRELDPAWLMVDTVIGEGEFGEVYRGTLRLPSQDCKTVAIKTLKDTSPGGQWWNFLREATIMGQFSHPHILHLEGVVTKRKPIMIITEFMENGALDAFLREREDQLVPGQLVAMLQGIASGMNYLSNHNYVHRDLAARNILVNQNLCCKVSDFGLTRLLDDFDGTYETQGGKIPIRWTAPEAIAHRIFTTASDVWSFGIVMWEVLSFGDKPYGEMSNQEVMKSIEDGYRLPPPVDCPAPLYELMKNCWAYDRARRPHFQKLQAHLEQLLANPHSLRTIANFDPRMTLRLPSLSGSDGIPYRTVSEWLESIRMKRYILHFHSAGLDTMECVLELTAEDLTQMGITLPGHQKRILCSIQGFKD
Sequence of InsR (P06213 28-1382): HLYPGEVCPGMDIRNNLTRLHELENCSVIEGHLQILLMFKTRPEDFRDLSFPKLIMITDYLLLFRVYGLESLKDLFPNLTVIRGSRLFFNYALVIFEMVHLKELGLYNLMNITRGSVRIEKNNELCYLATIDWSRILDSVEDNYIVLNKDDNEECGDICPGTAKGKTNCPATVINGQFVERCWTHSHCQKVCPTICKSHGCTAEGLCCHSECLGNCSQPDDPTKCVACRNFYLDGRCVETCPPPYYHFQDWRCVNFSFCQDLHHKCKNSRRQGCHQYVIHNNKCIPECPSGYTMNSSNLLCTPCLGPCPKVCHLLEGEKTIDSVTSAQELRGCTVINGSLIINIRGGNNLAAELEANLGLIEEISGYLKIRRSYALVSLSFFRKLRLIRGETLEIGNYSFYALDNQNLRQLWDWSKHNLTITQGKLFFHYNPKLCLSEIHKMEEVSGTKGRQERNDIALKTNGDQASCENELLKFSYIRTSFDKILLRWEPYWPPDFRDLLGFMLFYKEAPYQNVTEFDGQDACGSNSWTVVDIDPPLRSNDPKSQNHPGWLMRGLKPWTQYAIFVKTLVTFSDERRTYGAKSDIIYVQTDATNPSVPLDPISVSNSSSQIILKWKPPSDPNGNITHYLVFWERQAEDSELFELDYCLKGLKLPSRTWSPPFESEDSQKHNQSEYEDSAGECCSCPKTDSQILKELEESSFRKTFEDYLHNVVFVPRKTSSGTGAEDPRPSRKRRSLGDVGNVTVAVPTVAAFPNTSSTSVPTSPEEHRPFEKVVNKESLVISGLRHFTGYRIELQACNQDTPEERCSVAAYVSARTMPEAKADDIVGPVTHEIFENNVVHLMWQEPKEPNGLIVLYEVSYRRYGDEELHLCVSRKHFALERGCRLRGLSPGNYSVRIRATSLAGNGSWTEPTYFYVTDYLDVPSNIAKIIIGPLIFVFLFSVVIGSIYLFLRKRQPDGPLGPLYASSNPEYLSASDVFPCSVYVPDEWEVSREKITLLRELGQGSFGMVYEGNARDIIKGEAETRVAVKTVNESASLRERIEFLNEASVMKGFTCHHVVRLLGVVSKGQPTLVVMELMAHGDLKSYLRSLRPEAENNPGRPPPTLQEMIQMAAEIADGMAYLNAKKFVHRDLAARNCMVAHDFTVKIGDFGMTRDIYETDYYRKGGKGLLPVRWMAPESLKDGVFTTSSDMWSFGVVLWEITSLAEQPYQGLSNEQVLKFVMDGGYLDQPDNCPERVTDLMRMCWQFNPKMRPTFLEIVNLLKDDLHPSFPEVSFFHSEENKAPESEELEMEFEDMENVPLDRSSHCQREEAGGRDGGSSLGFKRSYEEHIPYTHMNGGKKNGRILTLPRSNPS
Sequence of IGF1R (P08069 31-1367): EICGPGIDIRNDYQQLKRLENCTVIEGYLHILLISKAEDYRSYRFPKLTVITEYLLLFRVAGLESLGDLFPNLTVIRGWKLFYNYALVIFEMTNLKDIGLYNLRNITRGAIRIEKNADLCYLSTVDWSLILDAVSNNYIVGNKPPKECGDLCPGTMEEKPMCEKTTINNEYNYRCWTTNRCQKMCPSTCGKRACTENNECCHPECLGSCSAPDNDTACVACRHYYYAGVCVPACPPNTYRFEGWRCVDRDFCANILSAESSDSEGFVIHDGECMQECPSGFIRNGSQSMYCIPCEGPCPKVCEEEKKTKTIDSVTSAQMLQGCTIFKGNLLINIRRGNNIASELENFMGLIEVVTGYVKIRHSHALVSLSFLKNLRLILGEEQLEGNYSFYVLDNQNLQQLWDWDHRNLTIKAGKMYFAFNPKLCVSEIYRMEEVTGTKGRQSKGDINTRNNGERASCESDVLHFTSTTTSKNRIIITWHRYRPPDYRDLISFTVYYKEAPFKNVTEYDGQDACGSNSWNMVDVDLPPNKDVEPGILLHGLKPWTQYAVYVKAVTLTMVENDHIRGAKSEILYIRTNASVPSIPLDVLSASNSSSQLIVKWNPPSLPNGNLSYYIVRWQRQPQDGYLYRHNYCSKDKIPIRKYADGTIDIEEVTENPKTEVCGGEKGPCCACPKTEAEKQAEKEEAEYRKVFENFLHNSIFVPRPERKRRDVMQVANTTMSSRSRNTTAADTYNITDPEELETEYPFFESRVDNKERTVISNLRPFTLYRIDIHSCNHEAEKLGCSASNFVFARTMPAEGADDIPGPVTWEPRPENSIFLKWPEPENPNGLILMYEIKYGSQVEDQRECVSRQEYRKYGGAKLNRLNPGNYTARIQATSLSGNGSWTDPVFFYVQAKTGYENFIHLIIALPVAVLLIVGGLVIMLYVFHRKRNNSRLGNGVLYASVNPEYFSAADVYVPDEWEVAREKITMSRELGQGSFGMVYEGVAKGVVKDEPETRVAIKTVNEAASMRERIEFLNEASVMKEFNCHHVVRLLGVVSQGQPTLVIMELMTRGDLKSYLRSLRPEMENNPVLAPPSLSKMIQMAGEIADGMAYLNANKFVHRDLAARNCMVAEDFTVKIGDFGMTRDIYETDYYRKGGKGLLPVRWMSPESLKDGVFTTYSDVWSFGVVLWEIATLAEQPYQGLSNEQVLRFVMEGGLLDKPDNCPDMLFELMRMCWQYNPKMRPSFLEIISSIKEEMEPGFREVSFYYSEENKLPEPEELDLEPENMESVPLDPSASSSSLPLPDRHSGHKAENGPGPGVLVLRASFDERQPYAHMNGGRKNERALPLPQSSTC
Sequence of AXL (P30530 26-894): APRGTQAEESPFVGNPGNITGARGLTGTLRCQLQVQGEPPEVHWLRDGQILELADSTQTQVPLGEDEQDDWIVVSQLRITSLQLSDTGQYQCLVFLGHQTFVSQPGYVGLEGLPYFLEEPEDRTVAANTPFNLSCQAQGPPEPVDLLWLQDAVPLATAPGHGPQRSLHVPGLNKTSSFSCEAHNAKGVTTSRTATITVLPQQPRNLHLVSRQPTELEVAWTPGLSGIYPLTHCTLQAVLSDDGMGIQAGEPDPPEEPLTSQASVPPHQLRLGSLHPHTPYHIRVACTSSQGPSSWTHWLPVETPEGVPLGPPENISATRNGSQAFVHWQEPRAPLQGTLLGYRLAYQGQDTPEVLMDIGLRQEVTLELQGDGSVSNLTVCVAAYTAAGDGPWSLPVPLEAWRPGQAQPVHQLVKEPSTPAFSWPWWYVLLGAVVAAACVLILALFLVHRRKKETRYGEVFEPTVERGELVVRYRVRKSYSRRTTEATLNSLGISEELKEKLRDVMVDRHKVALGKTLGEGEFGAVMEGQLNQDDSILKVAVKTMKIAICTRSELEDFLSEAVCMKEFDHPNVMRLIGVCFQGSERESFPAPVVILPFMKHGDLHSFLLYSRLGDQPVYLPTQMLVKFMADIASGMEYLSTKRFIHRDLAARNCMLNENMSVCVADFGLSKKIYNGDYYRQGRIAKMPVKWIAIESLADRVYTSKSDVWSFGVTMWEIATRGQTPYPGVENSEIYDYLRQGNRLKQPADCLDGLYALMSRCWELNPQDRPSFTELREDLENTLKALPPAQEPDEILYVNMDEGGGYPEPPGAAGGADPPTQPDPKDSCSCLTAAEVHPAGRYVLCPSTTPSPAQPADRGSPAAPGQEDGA

SMILES: Cc1ccccc1NS(=O)(=O)c1ccc2c(c1)/C(=C/c1nc3ccccc3[nH]1)C(=O)N2 [Indo5, 3-(1H-benzimidazol-2-methylene)-5-(2-methylphenylaminosulfo)-2-indolone]
- HGF-induced vasculature formation in vivo [1]: dramatically blocked
- HCC metastasis in lung (HCC metastasis in lung): dramatic decrease
- cytotoxicity (mouse hepatocytes; 0.5 μM Indo5, 72 h, data not shown): no cytotoxicity was observed
- HGF-induced cell proliferation (mouse hepatocytes; mouse hepatocytes, HGF 20 ng/ml 48 h, MTS): dose-dependently inhibited
- cell apoptosis (Ba/F3-Tpr-Met cells): markedly induced cell apoptosis
- IC50 (FGFR1): > 10 µM
- xenograft tumor growth (SK-N-SH xenograft): dose-dependent inhibitory effect
- IC50 (IGF1R): > 10 µM
- NGF-induced TrkA signaling (TrkA signaling): almost completely inhibited
- IC50 [2]: 2.98 to 9.19 µM
- rate of tumor growth inhibition ([3]; orthotopic HepG2, 8 mg/kg intraperitoneally once daily for 3 weeks): approximately 49%
- rate of tumor growth inhibition ([3]; orthotopic HepG2, 16 mg/kg intraperitoneally once daily for 3 weeks): 61.2%
- overall health of the animals ([3]; orthotopic HepG2 model, Indo5 vs control, data not shown): not adversely affected
- IC50 (InsR): > 10 µM
- activation of VEGF receptor-mediated signaling pathway [4]: no effect
- HGF-induced cell migration (HepG2 cells): significantly suppressed
- IC50 (C-KIT(v654A)): > 10 µM
- mouse body weights [5]: almost unchanged
- IC50 (FLT1): > 10 µM
- IC50 (AXL): > 10 µM
- IC50 (RET): > 10 µM
- IC50 (EPHA1): > 10 µM
- BDNF-induced growth (Ba/F3-TrkB cells): inhibited
- body weight change [6]: no obvious weight changes; also recorded: not associated with loss of body weight
- IC50 (SK-N-SH): 2.982 ± 0.019 µM
- IC50 (L02): 32.52 ± 0.075 µM
- IC50 (HCC-LM3): 1.873 ± 0.012 µM
- IC50 (A549): 1.62 ± 0.008 µM
- IC50 (NCI-H460): 9.185 ± 0.035 µM
- IC50 (BEL-7402): 5.605 ± 0.017 µM
- IC50 (SMMC-7721): 3.598 ± 0.022 µM
- IC50 (MRC-5): > 100 µM
- xenograft tumor growth (SMMC-7721 xenograft): dose-dependent inhibitory effect
- activation of EGF receptor-mediated signaling pathway [7]: no effect
- BDNF-induced TrkB signaling (TrkB signaling): decreased
- IC50 (PDGFRα): > 10 µM

Source: publication PMC6421704 (Journal of Experimental & Clinical Cancer Research : CR, 2019)
